Measurements taken from patent US20240157166A1, “ALTERNATING MAGNETIC FIELDS AND ANTIBIOTICS TO ERADICATE BIOFILM ON METAL IN A SYNERGISTIC FASHION” (priority 2021, published 2024).
Values after ≈ are worked out from the molar mass of the structure shown.

Key:
S. aureus (UAMS1) = test: Minimum inhibitory concentration, S. aureus UAMS1; format: cell-based; details: Staphylococcus aureus; strain UAMS1
[1] = tested on: S. aureus (UAMS1) biofilm; test: Biofilm CFU on stainless-steel rings, antibiotic with or without iAMF, UAMS1; format: cell-based; details: for CFU at 24 h, iAMF and antibiotic versus antibiotic alone: antibiotic 2 μg/mL, iAMF Tmax=65 °C, 15 min per dose at 0 and 12 h
Procedure: Biofilm preparation, treatment and quantification.
Doses were delivered at 0 and 12 hours and ring biofilm burden was quantified at various time points as above. For S. aureus experiments, biofilm of UAMS1 were prepared on stainless steel rings according to the culturing protocol and incubated with 2 μg/mL of ceftriaxone or 2 μg/mL of linezolid, in 10 mL TSB media. […] Doses were delivered at 0 and 12 hours and biofilm burden was quantified at 24 hours.

GFP-PAO1 biofilms = test: Laser scanning confocal microscopy of GFP-PAO1 biofilm; details: 0.5 μg/mL
Source text: After staining, rings were mounted on a 50 mm glass bottom plate and images were captured with a Zeiss LSM880 Airyscan laser confocal microscope. The GFP-PA01 bacteria and ConA-stained EPS were imaged using a 40× objective lens. Multiple regions of the ring surface were randomly selected, and Z-stacks were acquired with slice step size of 0.5 μm. Before image processing, the z-stacks were deconvolved using Autoquant×3 (Media Cybernetics, MD, USA) to improve the image resolution in X, Y and Z directions. The deconvolved images were analyzed with Imaris x64 9.1.2 (Bitplane AG, Zurich, Switzerland).

[2] = tested on: MDR P. aeruginosa (MB699) biofilm; test: Biofilm CFU on rings, antibiotic with or without iAMF, MDR strain MB699; details: for CFU reduction with iAMF at other antibiotic concentrations: meropenem sub-MIC 32 μg/mL, ciprofloxacin increased concentration (128 μg/ml), 48 h
[3] = tested on: P. aeruginosa (MB699) biofilm; test: Scanning electron microscopy of MB699 biofilm; format: cell-based; details: 64 μg/mL; for bacterial morphology by SEM, antibiotic alone: 12 h, no iAMF; for bacterial morphology by SEM, iAMF and antibiotic: 12 h post iAMF (Tmax=65 °C, Nexp=12)
Procedure: […]. The rings were carefully transferred to 4 mL PBS, rinsed in 4 mL of 0.1 M sodium cacodylate buffer three times and fixed for 24 h in 4 mL of 2% glutaraldehyde, 2% paraformaldehyde in 0.1 M sodium cacodylate buffer. After rinsing in 4 mL of cacodylate buffer three times, the samples were re-fixed in 4 mL of 2% osmium in 0.1 M sodium cacodylate buffer for 2 h. Then the rings were further rinsed with 4 mL of deionized water five times and dehydrated at room temperature in five steps by placing the rings in 4 mL of 50, 70 (twice), 85, 95 (twice) and 100% ethanol respectively for 5 min per solution. The rings were then transferred to 4 mL of 25, 50, 75 and 100% (twice) hexamethyldisilazane (HMDS) in ethanol consecutively for 15 min each. Finally, the samples were left to dry for 24 h in a fume hood. The specimens were mounted on aluminum stubs, gold/palladium sputter coated, and examined using a Zeiss Sigma VP scanning electron microscope. The images were acquired at 10 kV with magnification of approximately 35000×.

[4] = tested on: MDR P. aeruginosa (MB699); test: microbe, parasite or virus in culture; details: Pseudomonas aeruginosa, read-out: minimum inhibitory concentration (MIC)

SMILES | MIC (S. aureus (UAMS1)) | CFU at 24 h, iAMF and antibiotic versus antibiotic alone [1] | CFU reduction with iAMF at other antibiotic concentrations [2] | bacterial morphology by SEM, antibiotic alone [3] | bacterial morphology by SEM, iAMF and antibiotic [3] | also measured
CO/N=C(\C(=O)N[C@@H]1C(=O)N2C(C(=O)O)=C(CSc3nc(=O)c(=O)[nH]n3C)CS[C@H]12)c1csc(N)n1 [ceftriaxone] | 2 mg/L (≈ 3.61 µM) | significantly lower CFU | – | – | – | CFU after 24 h ([1]; 2 μg/mL ceftriaxone in combination with iAMF (doses at 0 and 12 h)): approaching the limit of detection; CFU reduction after 24 h ([1]; ceftriaxone alone, 2 μg/mL): ~2 log; initial decrease of biofilm CFU ([1]; iAMF (Tmax=65 °C, 15 min dose) and 2 μg/mL ceftriaxone, after first dose): over 3 logs
O=C(O)c1cn(C2CC2)c2cc(N3CCNCC3)c(F)cc2c1=O [ciprofloxacin] | – | – | did not lead to enhanced CFU decreases | no obvious morphological changes | slight lengthening of bacteria and increased wrinkling of the membrane | bacterial morphology by confocal microscopy, ciprofloxacin only (GFP-PAO1 biofilms; 12 h post-treatment): slight elongation; EPS staining and morphology by confocal microscopy, iAMF and ciprofloxacin (GFP-PAO1 biofilms; iAMF Tmax=65 °C, Nexp=12, 12 h): less dense EPS staining; bacterial burden (CFU) at 48 h with iAMF and antibiotic [2]: did not result in a further reduction of CFU
CC(=O)NC[C@H]1CN(c2ccc(N3CCOCC3)c(F)c2)C(=O)O1 [linezolid] | 2 mg/L (≈ 5.93 µM) | significantly lower CFU | – | – | – | magnitude of biofilm reduction, 7-day versus 2-day biofilm ([1]; iAMF (Tmax=65 °C, 15 min per dose) and 2 μg mL-1 linezolid): no significant difference
C[C@@H](O)[C@H]1C(=O)N2C(C(=O)O)=C(S[C@@H]3CN[C@H](C(=O)N(C)C)C3)[C@H](C)[C@H]12 [meropenem] | – | – | also seen | no obvious morphological changes | fragmented and deformed bacterial cells | interaction of iAMF and antibiotic in MDR strain ([2]; strain with oprD porin and DNA gyrase mutations): synergistic effect; MIC [4]: 64 mg/L (≈ 167 µM)
